Results: patent US10791740B2, “Enhancement of antibiotic efficacy” (priority 2014, dated 2020)
In brackets after ≈: the same amount, converted by molar mass. Read-outs that look alike come from different tables or passages of the source.

Experiments:
E. coli [1] = details: Journal of the American Chemical Society 2002, 124, 9022-3, cited from earlier work
[2] = system: tetracycline resistant E. coli; type: cell-based, Escherichia coli; details: for MIC: single agent, Table 5; for MIC (μM) of amphiphile alone: Tables 6 and 7
Text: (§1) Certain aspects are drawn to a method for increasing or enhancing the antimicrobial activity of an antimicrobial agent. As used herein, the “antimicrobial activity” of an antimicrobial agent is defined as the property of a substance to inhibit the growth and reproduction of a microbial organism or to kill it. Common terms generally applied to bacteria are bacteriostatic (stops growth) and bactericidal (kills bacteria). Depending on the concentrations applied, microbial growth can be slowed or stopped in comparison to concurrent experiments conducted in the absence of an antimicrobial agent. Depending on the concentrations applied, additional microbe death can occur in comparison to concurrent experiments conducted in the absence of an antimicrobial agent. […] The MIC is the lowest concentration of any agent having antimicrobial activity that inhibits the growth of a microorganism as judged by visual inspection. MIC can be determined by inoculating media with the organism and adding the antimicrobial agent diluted successively in half.
(§2) Among the organisms studied are several strains of the bacterium E. coli.
N,N′-Dibenzyl-4,13-diaza-18-crown-6 is referred to in the table as dibenzyldiaza-18-crown-6.
(§3) Minimal Inhibitory Concentration (MIC) Procedure. […] Prepare initial concentration of all the compounds required. • 5. […] Vortex each test tube for 2-3 seconds. • 11.

E. coli [3] = test: MIC determination, E. coli (Table 1); type: cell-based, Escherichia coli; details: single agent
Text: as §1, §2, §3

K-12 E. coli [4] = test: Combination of amphiphile and antibiotic against K-12 E. coli
DH5α E. coli [5] = test: Combination of lariat ether and antibiotic against DH5α E. coli; details: 0.4 vol-% DMSO
K-12 E. coli [6] = test: MIC of single agents against K-12 E. coli
[7] = system: tetracycline resistant E. coli
HEK-293 cells = test: MTT assay of toxicity to HEK-293 cells
Method: The toxicity of C6. C8, C10. C11 and C14 lariat ethers to HEK-293 cells was determined by using an MTT assay. […] The abscissa is a logarithmic scale for the concentrations ranging from 1 μM to 1000 μM (1 mM) used in the experiment. The ordinate represents percent survival of HEK-293 cells.
Growth medium containing DMEM with high glucose (ATCC). 10% fetal bovine serum (FBS: Sigma-Aldrich) and 10 μg/mL of blasticidin (Thermo-Fischer) was prepared. HEK 293 cells were thawed out from cryo-preserved samples in 10 mL growth media, centrifuged at 500 rpm for 10 minutes to remove preservative. The cells were then resuspended in fresh growth medium and cultured using a T-75 flask (Thermo-Fischer) at 37° C. and 5% CO2. Cells were monitored for confluence and growth medium was replaced every 48 h, until cells were placed onto a 96-well plate for toxicity studies.
After reaching 80-90% confluence, cells were trypsinized and suspended in media containing DMEM and 10% FBS (no antibiotics). The cells were counted on a hemacytometer and plated at a density of 20,000 cells per well in a 96-well plate and grown for 24 hours to reach 60-70% confluence. DMSO stocks of C6, C8, C10, C11 and C14 diaza-18-crown-6 lariat ethers were prepared at […] and diluted 1:10 to get working concentrations of 20 mM, 2 mM, and 0.2 mM. Each stock was further diluted […] into DMEM supplemented with 10% FBS to get final concentrations of 1 mM, 0.1 mM, 0.01 mM (10 μM) and 0.001 mM (1 μM). The original media was then removed from the cells and replaced with 200 μL media containing the desired concentration of compound. Three wells were used for each concentration providing experimental triplicates. […] The absorbance was measured at 570 nm and nonspecific absorbance was corrected at 650 nm, using SpectraMax340 micro plate reader.
The experiment was performed in triplicate and the average of percent survival of three experiments was determined. […] The lethal dose 50 (LD50) for each compound was calculated by using the equation for a logarithmic regression curve.

B. stubtilis = test: MIC determination, B. subtilis (Table 1); type: cell-based, Bacillus subtilis; details: single agent
Text: (§4) Certain aspects are drawn to a method for increasing or enhancing the antimicrobial activity of an antimicrobial agent. As used herein, the “antimicrobial activity” of an antimicrobial agent is defined as the property of a substance to inhibit the growth and reproduction of a microbial organism or to kill it. Common terms generally applied to bacteria are bacteriostatic (stops growth) and bactericidal (kills bacteria). Depending on the concentrations applied, microbial growth can be slowed or stopped in comparison to concurrent experiments conducted in the absence of an antimicrobial agent. Depending on the concentrations applied, additional microbe death can occur in comparison to concurrent experiments conducted in the absence of an antimicrobial agent. The results of minimum inhibitory concentration (MIC) evaluations and growth curves are presented herein and the conditions are specified. The MIC is the lowest concentration of any agent having antimicrobial activity that inhibits the growth of a microorganism as judged by visual inspection. MIC can be determined by inoculating media with the organism and adding the antimicrobial agent diluted successively in half. […] Reference herein to increasing or enhancing activity, efficacy, potency, and the like are used interchangeably to mean that when the synthetic amphiphile is present, the ability of the antimicrobial agent to inhibit the growth of or to kill an organism will be manifested at a concentration lower than would be required to achieve the same results in the absence of said synthetic amphiphile.
(§5) Among the organisms studied are several strains of the bacterium E. coli. […] Experiments were conducted to determine the MIC values for the synthetic amphiphiles known as lariat ethers according to the procedures described in Antimicrobial M07-A9: Methods for Dilution Antimicrobial Susceptibility Tests for Bacteria that Grow Aerobically; Clinical and Laboratory Standards Institute, 2012; Vol. 32, 67 pp. MIC values so determined for several lariat ethers and for several antibiotics are shown in Table 1.

DH5α E. coli [8] = test: MIC of single agents against DH5α E. coli; type: cell-based, Escherichia coli; details: for MIC to DH5α E. coli: single agent, values of the running text
Text: as §1, §2, §3

S. cerevisiae = test: MIC determination, S. cerevisiae (Table 1); type: cell-based, Saccharomyces cerevisiae; details: single agent
Text: as §4, §5

DH5α E. coli [9] = test: Inhibitory concentration (IC50) to DH5α E. coli cells (FIG. 4); type: cell-based, Escherichia coli
Text: Two commonly used abbreviations are LD50 and IC50. The former is the concentration of an agent that comprises a lethal dose to 50% of the organism under study. The latter is the concentration of agent that inhibits growth of 50% of the organism under study. […] The abscissa represents the number of (CH2) groups in spacer chains. The ordinate is logarithmic and reflects the concentrations (in μM) of the various lariat ethers used.

Compound: c1ccc(CN2CCOCCOCCN(CCCCCCCCCCCCN3CCOCCOCCN(CCCCCCCCCCCCN4CCOCCOCCN(Cc5ccccc5)CCOCCOCC4)CCOCCOCC3)CCOCCOCC2)cc1 [C12 hydraphile]
- toxicity to E. coli (E. coli [1]; listed as C12 benzyl hydraphile): killed E. coli
- toxicity to E. coli (E. coli [1]; listed as benzyl C12 hydraphile): killed the bacteria
- MIC [2]: 5 ± 0.5 µM (≈ 6.5 µg/mL)
- MIC (μM) of amphiphile alone ([2]; tetracycline resistant E. coli): 5 µM

Compound: c1ccc(CN2CCOCCOCCN(CCCCCCCCCCCCCCN3CCOCCOCCN(CCCCCCCCCCCCCCN4CCOCCOCCN(Cc5ccccc5)CCOCCOCC4)CCOCCOCC3)CCOCCOCC2)cc1 [C14 hydraphile]
- MIC [2]: 2 ± 0.125 µM (≈ 2.71 µg/mL)
- MIC (μM) of amphiphile alone ([2]; tetracycline resistant E. coli): 2 µM

Compound: CC[C@H]1OC(=O)[C@H](C)[C@@H](O[C@H]2C[C@@](C)(OC)[C@@H](O)[C@H](C)O2)[C@H](C)[C@@H](O[C@@H]2O[C@H](C)C[C@H](N(C)C)[C@H]2O)[C@](C)(O)C[C@@H](C)C(=O)[C@H](C)[C@@H](O)[C@]1(C)O [erythromycin, reference compound]
- MIC (E. coli [3]; Escherichia coli): > 400 µM

Compound: CO[C@H]1/C=C/O[C@@]2(C)Oc3c(C)c(O)c4c(O)c(c(/C=N/N5CCN(C)CC5)c(O)c4c3C2=O)NC(=O)/C(C)=C\C=C\[C@H](C)[C@H](O)[C@@H](C)[C@@H](O)[C@@H](C)[C@H](OC(C)=O)[C@@H]1C [rifampicin, reference compound]
- Antibiotic Used (μM) in combination (K-12 E. coli [4]; Rifampicin with 6 μM C11 lariat ether): 10 µM
- Antibiotic Used (μM) in combination (DH5α E. coli [5]; rifampicin with 8 μM n-C11 lariat ether): 15 µM
- Antibiotic Used (μM) in combination (DH5α E. coli [5]; rifampicin with 12 μM n-C11 lariat ether): 6 µM
- Antibiotic Used (μM) in combination (DH5α E. coli [5]; rifampicin with 16 μM n-C11 lariat ether): 6 µM
- Antibiotic Used (μM) in combination (DH5α E. coli [5]; rifampicin with 18 μM n-C11 lariat ether): 3 µM
- MIC (μM) of antibiotic alone (K-12 E. coli [6]): 20 µM

Compound: CN(C)[C@@H]1C(O)=C(C(N)=O)C(=O)[C@@]2(O)C(O)=C3C(=O)c4c(O)cccc4[C@@](C)(O)[C@H]3C[C@@H]12 [tetracycline, reference compound]
- Antibiotic Used (μM) in combination ([7]; Tetracycline with 8 μM C11 lariat ether): 175 µM
- Antibiotic Used (μM) in combination ([7]; Tetracycline with 12 μM C11 lariat ether): 87 µM
- Antibiotic Used (μM) in combination ([7]; Tetracycline with 16 μM C11 lariat ether): 87 µM
- Antibiotic Used (μM) in combination ([7]; Tetracycline with 18 μM C11 lariat ether): 87 µM
- Antibiotic Used (μM) in combination (K-12 E. coli [4]; Tetracycline with 6 μM C11 lariat ether): 2.5 µM
- Antibiotic Used (μM) in combination (DH5α E. coli [5]; tetracycline with 4 μM n-C11 lariat ether): 3 µM
- Antibiotic Used (μM) in combination (DH5α E. coli [5]; tetracycline with 12 μM n-C11 lariat ether): 1 µM
- Antibiotic Used (μM) in combination (DH5α E. coli [5]; tetracycline with 16 μM n-C11 lariat ether): 0.25 µM
- Antibiotic Used (μM) in combination (DH5α E. coli [5]; tetracycline with 18 μM n-C11 lariat ether): 1.5 µM
- MIC (μM) of antibiotic alone ([2]; tetracycline resistant E. coli): ~900 µM
- MIC (μM) of antibiotic alone (K-12 E. coli [6]): 6 µM

Compound: NC[C@H]1O[C@H](O[C@H]2[C@H](O)[C@@H](O[C@H]3O[C@H](CO)[C@@H](O)[C@H](N)[C@H]3O)[C@H](N)C[C@@H]2N)[C@H](N)C[C@@H]1O [tobramycin, reference compound]
- MIC (E. coli [3]; Escherichia coli): 15 µM (≈ 7.01 µg/mL)

Compound: N,N′-di-n-decyl-4,13-diaza-18-crown-6 [C10 lariat ether]
- toxicity to HEK-293, rank among lariat ethers (HEK-293 cells; C6 to C14 lariat ethers compared): highest toxicity
- MIC (μM) B. stubtilis (B. stubtilis): 2.8 µM
- MIC to DH5α E. coli (DH5α E. coli [8]): 12 µM
- MIC [2]: 16 µM
- MIC (μM) of amphiphile alone ([2]; tetracycline resistant E. coli): 16 µM
- MIC (μM) of amphiphile alone (K-12 E. coli [6]): 12 µM
- MIC (μM) S. cerevisiae (S. cerevisiae): 2.8 µM
- MIC (E. coli [3]): 11 µM

Compound: N,N′-di-n-dodecyl-4,13-diaza-18-crown-6 [C12 lariat ether]
- MIC (μM) B. stubtilis (B. stubtilis): 2.5 µM
- toxicity to DH5α E. coli cells (DH5α E. coli [8]; previous studies): did not show toxicity
- MIC (μM) of amphiphile alone ([2]; tetracycline resistant E. coli): >512 µM
- MIC (μM) of amphiphile alone (K-12 E. coli [6]): >512 µM
- MIC (μM) S. cerevisiae (S. cerevisiae): 2.5 µM
- MIC (E. coli [3]): >300 µM

Compound: N,N′-di-n-octyl-4,13-diaza-18-crown-6 [C8 lariat ether]
- LD50 to HEK-293 (HEK-293 cells): 33 µM
- MIC (μM) B. stubtilis (B. stubtilis): 105 µM
- MIC (μM) of lariat ether alone (DH5α E. coli [8]; DH5α E. coli, Tables 2 and 3): >120 µM
- MIC to DH5α E. coli (DH5α E. coli [8]): > 240 µM
- MIC to DH5α E. coli (DH5α E. coli [8]; listed as C8 Lariat): 120 µM
- IC50 (DH5α E. coli [9]; DH5α E. coli, FIG. 4): 150 µM
- MIC [2]: 120 µM
- MIC (μM) of amphiphile alone ([2]; tetracycline resistant E. coli): 120 µM
- MIC (μM) of amphiphile alone (K-12 E. coli [6]): 300 µM
- MIC (μM) S. cerevisiae (S. cerevisiae): 25 µM
- MIC (E. coli [3]): 120 µM

Compound: N,N′-di-n-tetradecyl-4,13-diaza-18-crown-6 [C14 lariat ether]
- MIC (μM) B. stubtilis (B. stubtilis): >300 µM
- activity against E. coli (DH5α E. coli [9]; at 180 μM): inactive
- MIC (μM) S. cerevisiae (S. cerevisiae): >300 µM
- MIC (E. coli [3]): >300 µM
